Results: patent US9566330B2, “Immunogenic composition for immune system modulation and use thereof, method for treating and preventing diseases, method for inducing cell regeneration and method for restoring immune response” (priority 2011, dated 2017)

Assays:
[1] = tested on: multiresistant Acinetobacter baunnamii; test: Cultures of the injury area, peripheral blood and central catheter: antibiotic sensitivity; type: cell-based, Acinetobacter baumannii
Description: Initial assessment of the patient's injuries in the operating room on 29 Jan. […] As described, the DECA immunotherapy was applied to these areas. It is interesting to note that on this occasion cultures of internal secretions and tissue fragments were performed.

[2] = tested on: Septicemia (Pseudomonas aeruginosa, Acinetobacter baunnamii, Proteus mirabiles); test: Clinical case, patient J-P: septicemia with infected complex wounds; type: in vivo, human; settings: 6 Feb. 2011; Polymyxin B 20,000 IU/kg twice daily and other antimicrobials
Excerpt: The patient was admitted to the ICU of Hospital Alemao Oswaldo Cruz for debridement and application of treatment with DECA which took the following form: • Application of 1.8 cc of the DECA composition divided into 2 applications of 0.9 cc per composition along the 10 main lymphatic territories. • 3-4 cm distance margin between applications to facilitate the reading of the evolution of the treatment at an interval of 4±1 days. These applications were made together with the surgical debridement (on average 1 to 2 times per week). • Administration of 36 extra perilesional compositions of 1.8 cc of each DECA in two applications of 0.9 cc per set, skirting the following open injuries without possibility of suture: the left inguinal region, the lateral side of the left thigh, the anterior left thigh and medial aspect of the left thigh, instep region and left lateral malleolus of the right leg. • Application of recombinant human interleukin-2 at low doses, at a receptor saturation level with a concentration of 1 to 2 million units per m^2 of the patient's body surface located in the region of the extra DECA applications. […]

Row | Compound | Pre-immunotherapy cultures (29/01/2011): sensitivity of the isolate ([1]; Central catheter) | Pre-immunotherapy cultures (29/01/2011): sensitivity of the isolate ([1]; Injury in the left thigh) | toxicity [2] | Pre-immunotherapy cultures (29/01/2011): sensitivity of the isolate ([1]; Peripheric blood) | sensitivity of the isolate ([1]; isolates of left thigh wound, peripheral blood and central catheter, result of 1 Feb. 2011)
1 | C[C@H]1[C@H](NC(=O)/C(=N\OC(C)(C)C(=O)O)c2csc(N)n2)C(=O)N1S(=O)(=O)O [Aztreonam] | baumannii only sensitive | baumannii only sensitive |  |  | 
2 | Polymyxin B | baumannii only sensitive | baumannii only sensitive | acute renal failure with oliguria | baumannii only sensitive | sensitive
